In this assay the target is T1, RORγ (Homo sapiens, UniProt P51449).
T1 construct: expressed in transfected cells; host or cells: 293FT cells (Invitrogen), expression vector pFN26A (Promega)
T1 sequence (P51449 269-508 limits assumed): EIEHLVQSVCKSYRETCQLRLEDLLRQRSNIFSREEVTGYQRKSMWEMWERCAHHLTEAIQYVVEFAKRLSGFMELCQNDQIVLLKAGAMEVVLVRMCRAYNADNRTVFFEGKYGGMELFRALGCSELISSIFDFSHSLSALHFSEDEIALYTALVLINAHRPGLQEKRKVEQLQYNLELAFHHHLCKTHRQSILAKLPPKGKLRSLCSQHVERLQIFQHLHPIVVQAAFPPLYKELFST
Kind of assay: RORγ GAL4 reporter gene assay (luciferase readout, 293FT cells). In kind it is cell-based. The settings on record: inhibition of RORγ (GAL4-RORγ-LBD) in transfected 293FT cells, luciferase signal, overnight incubation; read-out: mean pIC50 (converted). On the procedure:
RORγ GAL4 Reporter Gene Assay
Example inhibitors 1-38 were tested for their ability to inhibit RORγ activity in a RORγ GAL4 reporter gene assay. The assay procedure and results are described below.
RORγ GAL4 Reporter Gene Assay Description
A GAL4 one-hybrid reporter system employing luciferase readout was established to determine inhibition of RORγ in 293FT cells. The RORγ ligand-binding domain (LBD) was fused to the yeast GAL4 DNA binding domain (DBD) and placed under the control of the human cytomegalovirus (CMV) immediate early promoter, using expression vector pFN26A (Promega) and standard recombinant DNA cloning methods. To serve as a control in the assay, a similar vector was generated in which the GAL4-DBD was fused to Herpes simplex virus protein 16 (VP16), a constitutive transcriptional activator.
To monitor the inhibitory effect of compounds on RORγ, a transcriptional reporter construct was used. The pGL4.35 vector (Promega) contains nine copies of the GAL4 Upstream Activator Sequence (UAS). This sequence drives the transcription of the luciferase reporter gene luc2P in response to binding of a fusion protein containing the GAL4 DNA binding domain, as for example expressed by the GAL4-RORγ-LBD and GAL4-VP16 expression vectors described above. To allow a GAL4 fusion protein to drive the expression of the luciferase reporter, the pGL4.35 expression vector and the appropriate GAL4 fusion protein expression vector were bulk transfected in the 293FT cells using standard transfection techniques.
The day after transfection, cells were plated into 96 well plates, test compound was added and the plates were incubated overnight. Subsequently, the firefly luciferase activity was quantified using luciferase detection reagent and luminescence readout.
Detailed Assay Description
293FT cells (Invitrogen) were transfected with a GAL4 fusion protein expression vector (as described above) and the transcriptional reporter construct (pGL4.35, Promega). 60 μL of TransIT-293 transfection reagent (Mirus Bio) was added drop wise to 1500 μl Opti-MEM I Reduced Serum Medium (Invitrogen) and incubated at RT (RT) for 5 to 20 minutes. 1500 μL of this reagent mixture was added to 5 μg of GAL4 fusion protein expression vector and 5 μg of the transcriptional reporter construct, and incubated at RT for 20 minutes.
To harvest 293FT cells from a T75 flask, first the culture medium was taken off the cells. Subsequently, the cells were washed with Phosphate Buffered Saline (PBS) (Lonza), after which the PBS was removed. To dissociate the cells, 1 ml of TrypLE Express (Invitrogen) was added to the flask, followed by incubation at RT until the cells visually started to detach. Cells were collected in 5 mL of assay medium (DMEM culture medium (Lonza), 10% dialyzed FBS (Invitrogen) and Pen/Strep (Lonza)) to achieve a single cell suspension. 10×10^6 cells were spun down and re-suspended in 10 mL of assay medium. Subsequently, the cell suspension was added to the transfection mix tube, and then transferred as a whole to a T75 flask (Greiner), followed by overnight (16-24 hours) incubation at 37° C. and 5% CO2.
For compound screening, the cells were harvested (as described above) and counted. 13×10^6 cells were spun down, the supernatant was aspirated and the cells were re-suspended in 17.3 mL of assay medium obtaining a cell suspension of 0.75×10^6 cells/mL. 80 μL of cell suspension (60,000 cells) was plated per well into a white, flat bottom, tissue culture treated, 96 well screening plates (Greiner).
Test compounds were diluted, starting from a 10 mM dimethylsulfoxide (DMSO) stock solution, to serial dilutions in DMSO at 500× the final test concentration. Subsequently, these solutions were diluted to 5× the final test concentration in two 10-fold-dilution steps in assay medium. The final DMSO concentration of the 5× test compound solution was 1%. […]
(In general: Reporter assays use an easily measured gene product as a stand-in for the process of interest.)
Regarding `O=C(Cc1ccc(S(=O)(=O)CC2CC2(F)F)nc1)Nc1ccc(C(O)(C(F)(F)F)C(F)(F)F)cc1` (racemic) [(−)-22, (−)-2-[6-[(2,2-difluorocyclopropyl)methylsulfonyl]-3-pyridyl]-N-[4-[2,2,2-trifluoro-1-hydroxy-1-(trifluoromethyl)ethyl]phenyl]acetamide], the IC50 was not above 1 µM.

For `CCC(O)(c1ccc(NC(=O)Cc2ccc(S(=O)(=O)CC3CC3)nc2)cc1)C(F)(F)F` (racemic) [Example 20, 2-[6-(cyclopropylmethylsulfonyl)-3-pyridyl]-N-[4-[1-hydroxy-1-(trifluoromethyl)propyl]phenyl]acetamide], the IC50 is not above 1 µM.

Take `O=C(Cc1ccc(S(=O)(=O)CC2CC2)nc1)Nc1ccc(C(O)(C(F)(F)F)C(F)(F)F)cc1` [Example 1, 2-[6-(cyclopropylmethylsulfonyl)-3-pyridyl]-N-[4-[2,2,2-trifluoro-1-hydroxy-1-(trifluoromethyl)ethyl]phenyl]acetamide]: the IC50 is not above 0.1 µM.

As for `COC(c1ccc(NC(=O)Cc2ccc(S(=O)(=O)CC3CC3)nc2)cc1)(C(F)(F)F)C(F)(F)F` [Example 2, 2-[6-(cyclopropylmethylsulfonyl)-3-pyridyl]-N-[4-[2,2,2-trifluoro-1-methoxy-1-(trifluoromethyl)ethyl]phenyl]acetamide], the IC50 was not above 0.1 µM.

On to `Cc1cc(NC(=O)Cc2ccc(S(=O)(=O)CC3CC3)nc2)ccc1C(O)(C(F)(F)F)C(F)(F)F` [Example 3, 2-[6-(cyclopropylmethylsulfonyl)-3-pyridyl]-N-[3-methyl-4-[2,2,2-trifluoro-1-hydroxy-1-(trifluoromethyl)ethyl]phenyl]acetamide], for which the IC50 is not above 0.1 µM.

For the compound `O=C(Cc1ccc(S(=O)(=O)CC2CC2)nc1)Nc1ccc(C(O)(C(F)(F)F)C(F)(F)F)c(F)c1` [Example 4, 2-[6-(cyclopropylmethylsulfonyl)-3-pyridyl]-N-[3-fluoro-4-[2,2,2-trifluoro-1-hydroxy-1-(trifluoromethyl)ethyl]phenyl]acetamide], the IC50 was not above 0.1 µM.

As to `O=C(Cc1ccc(S(=O)(=O)CC2CC2)nc1)Nc1ccc(C(O)(C(F)(F)F)C(F)(F)F)c(Cl)c1` [Example 5, N-[3-chloro-4-[2,2,2-trifluoro-1-hydroxy-1-(trifluoromethyl)ethyl]phenyl]-2-[6-(cyclopropylmethylsulfonyl)-3-pyridyl]acetamide], the IC50 was not above 0.1 µM.

Regarding `COc1cc(NC(=O)Cc2ccc(S(=O)(=O)CC3CC3)nc2)ccc1C(O)(C(F)(F)F)C(F)(F)F` [Example 6, 2-[6-(cyclopropylmethylsulfonyl)-3-pyridyl]-N-[3-methoxy-4-[2,2,2-trifluoro-1-hydroxy-1-(trifluoromethyl)ethyl]phenyl]acetamide], the IC50 is not above 1 µM.

`Cc1cc(C(O)(C(F)(F)F)C(F)(F)F)ccc1NC(=O)Cc1ccc(S(=O)(=O)CC2CC2)nc1` [Example 7, 2-[6-(cyclopropylmethylsulfonyl)-3-pyridyl]-N-[2-methyl-4-[2,2,2-trifluoro-1-hydroxy-1-(trifluoromethyl)ethyl]phenyl]acetamide]: the IC50 is not above 1 µM.

For `O=C(Cc1ccc(S(=O)(=O)CC2CC2)nc1)Nc1ccc(C(O)(C(F)(F)F)C(F)(F)F)cc1F` [Example 8, 2-[6-(cyclopropylmethylsulfonyl)-3-pyridyl]-N-[2-fluoro-4-[2,2,2-trifluoro-1-hydroxy-1-(trifluoromethyl)ethyl]phenyl]acetamide], the IC50 is not above 0.1 µM.

In the case of `COc1cc(C(O)(C(F)(F)F)C(F)(F)F)ccc1NC(=O)Cc1ccc(S(=O)(=O)CC2CC2)nc1` [Example 9, 2-[6-(cyclopropylmethylsulfonyl)-3-pyridyl]-N-[2-methoxy-4-[2,2,2-trifluoro-1-hydroxy-1-(trifluoromethyl)ethyl]phenyl]acetamide], the IC50 was not above 1 µM.

As for `O=C(Cc1ccc(S(=O)(=O)CC2CC2)nc1)Nc1ccc(C(O)(C(F)(F)F)C(F)(F)F)cn1` [Example 10, 2-[6-(cyclopropylmethylsulfonyl)-3-pyridyl]-N-[5-[2,2,2-trifluoro-1-hydroxy-1-(trifluoromethyl)ethyl]-2-pyridyl]acetamide], the IC50 was not above 1 µM.

As for `CCCC(O)(c1ccc(NC(=O)Cc2ccc(S(=O)(=O)CC3CC3)nc2)cc1)C(F)(F)F` (stereo not drawn) [Example 11, 2-[6-(cyclopropylmethylsulfonyl)-3-pyridyl]-N-[4-[1-hydroxy-1-(trifluoromethyl)butyl]phenyl]acetamide], the IC50 is not above 1 µM.

For `CC(C)CC(O)(c1ccc(NC(=O)Cc2ccc(S(=O)(=O)CC3CC3)nc2)cc1)C(F)(F)F` (stereo not drawn) [Example 12, 2-[6-(cyclopropylmethylsulfonyl)-3-pyridyl]-N-[4-[1-hydroxy-3-methyl-1-(trifluoromethyl)butyl]phenyl]acetamide], the IC50 was not above 0.1 µM.

Turning to `CC(C)CCC(O)(c1ccc(NC(=O)Cc2ccc(S(=O)(=O)CC3CC3)nc2)cc1)C(F)(F)F` (stereo not drawn) [Example 13, 2-[6-(cyclopropylmethylsulfonyl)-3-pyridyl]-N-[4-[1-hydroxy-4-methyl-1-(trifluoromethyl)pentyl]phenyl]acetamide], the IC50 was not above 1 µM.

With `O=C(Cc1ccc(S(=O)(=O)CC2CC2)nc1)Nc1ccc(C(O)(C2CCCC2)C(F)(F)F)cc1` (stereo not drawn) [Example 14, N-[4-(1-cyclopentyl-2,2,2-trifluoro-1-hydroxy-ethyl)phenyl]-2-[6-(cyclopropylmethylsulfonyl)-3-pyridyl]acetamide], the IC50 was not above 1 µM.

Regarding `O=C(Cc1ccc(S(=O)(=O)CC2CC2)nc1)Nc1ccc(C(O)(CC2CCCC2)C(F)(F)F)cc1` (stereo not drawn) [Example 15, N-[4-[1-(cyclopentylmethyl)-2,2,2-trifluoro-1-hydroxy-ethyl]phenyl]-2-[6-(cyclopropylmethylsulfonyl)-3-pyridyl]acetamide], the IC50 is not above 1 µM.

For the compound `O=C(Cc1ccc(S(=O)(=O)CC2CC2)nc1)Nc1ccc(C(O)(CC2CCCCC2)C(F)(F)F)cc1` (stereo not drawn) [Example 16, N-[4-[1-(cyclohexylmethyl)-2,2,2-trifluoro-1-hydroxy-ethyl]phenyl]-2-[6-(cyclopropylmethylsulfonyl)-3-pyridyl]acetamide], the IC50 was not above 1 µM.

Take `O=C(Cc1ccc(S(=O)(=O)CC2CC2)nc1)Nc1ccc(C(O)(C2CC2)C2CC2)cc1` [Example 18, 2-[6-(cyclopropylmethylsulfonyl)-3-pyridyl]-N-[4-[dicyclopropyl(hydroxy)methyl]phenyl]acetamide]: the IC50 is not above 1 µM.

For the compound `O=C(Cc1ccc(S(=O)(=O)CC2CC2)nc1)Nc1ccc(C(O)(c2ccccc2)C(F)(F)F)cc1` (stereo not drawn) [Example 19, 2-[6-(cyclopropylmethylsulfonyl)-3-pyridyl]-N-[4-(2,2,2-trifluoro-1-hydroxy-1-phenyl-ethyl)phenyl]acetamide], the IC50 was not above 0.1 µM.

Turning to `Cc1cc(S(=O)(=O)CC2CC2)ncc1CC(=O)Nc1ccc(C(O)(C(F)(F)F)C(F)(F)F)cc1` [Example 23, 2-[6-(cyclopropylmethylsulfonyl)-4-methyl-3-pyridyl]-N-[4-[2,2,2-trifluoro-1-hydroxy-1-(trifluoromethyl)ethyl]phenyl]acetamide], the IC50 is not above 1 µM.

(Values after US10118895B2, “ROR gamma (RORγ) modulators” (LEAD PHARMA HOLDING B.V., priority 2015, dated 2018).)
